In ChEMBL document CHEMBL2385068, “2-Aminobenzothiazole derivatives: search for new antifungal agents” (Eur J Med Chem, 2013) one finds MIC, Ratio and Activity data, which are given here for 14 compounds.

Structures are written as SMILES. ≈ marks a conversion by molar mass, not a printed value.

The subject of one data set is Candida tropicalis. In words: Antifungal activity against Candida tropicalis ATCC 750 after 24 to 48 hrs by broth microdilution method. The class given is functional. Background: In broth dilution the organism is exposed to a series of concentrations in liquid medium.
A further data set relates to Staphylococcus aureus. In words: Antibacterial activity against Staphylococcus aureus ATCC 29213 after 24 hrs by broth microdilution method. To be noted: ATCC 29213, 24 h. The class given is functional.
The test system of a further data set is Enterococcus faecalis. The data set is described as follows: Antibacterial activity against Enterococcus faecalis ATCC 29212 after 24 hrs by broth microdilution method. The class given is functional. To be noted: ATCC 29212, 24 h.
A further data set concerns Escherichia coli. The data set is described as follows: Antibacterial activity against Escherichia coli ATCC 25922 after 24 hrs by broth microdilution method. The class given is functional. To be noted: ATCC 25922, 24 h.
The next data set relates to Candida parapsilosis. In words: Antifungal activity against Candida parapsilosis ATCC 22019 after 24 to 48 hrs by broth microdilution method. The class given is functional. To be noted: Lodderomyces parapsilosis.
Data set [1] deals with Pichia kudriavzevii. The data set is described as follows: Ratio of fluconazole MIC to compound MIC for Candida krusei ATCC 6258. The class given is functional.
For a further data set, the system named is Candida albicans. The data set is described as follows: Antifungal activity against Candida albicans ATCC 10231 after 24 to 48 hrs by broth microdilution method. The class given is functional.
Data set [2] concerns Pichia kudriavzevii. In words: Antifungal activity against Candida krusei ATCC 6258 after 24 to 48 hrs by broth microdilution method. The class given is functional.
The subject of data set [3] is THP-1. The data set is described as follows: Cytotoxicity against human THP1 cells assessed as release of lactate dehydrogenase at 4 times MIC after 24 hrs. To be noted: thp-1, 24 h. The class given is cell-based.
For data set [4], the system named is THP-1. In words: Cytotoxicity against human THP1 cells at 4 times MIC after 24 hrs by trypan blue exclusion assay. The class given is cell-based. To be noted: thp-1, 24 h.
Data set [5] relates to THP-1. The data set is described as follows: Cytotoxicity against human THP1 cells assessed as release of lactate dehydrogenase at 10 times MIC after 24 hrs. The class given is cell-based. To be noted: thp-1, 24 h.

In the case of `Nc1nc2ccc(OCCc3ccccc3)cc2s1`, the MIC was 32 mg/L (≈ 118 µM) against Candida tropicalis; over 512 mg/L against Staphylococcus aureus; 128 mg/L (≈ 473 µM) against Enterococcus faecalis; over 512 mg/L against Escherichia coli; 16 mg/L (≈ 59.2 µM) in the data set on Candida parapsilosis; 8 mg/L (≈ 29.6 µM) against Candida albicans. In addition, the MIC against Pichia kudriavzevii [2] was determined as 16 mg/L (≈ 59.2 µM). Also, in the data set with Pichia kudriavzevii [1], the Ratio worked out at 2.
On to `Nc1nc2ccc(OCCCc3ccccc3)cc2s1`, for which the MIC against Candida tropicalis was 16 mg/L (≈ 56.3 µM); with Staphylococcus aureus, 512 mg/L (≈ 1800 µM); against Enterococcus faecalis, 128 mg/L (≈ 450 µM); in the data set with Escherichia coli, over 512 mg/L; against Candida parapsilosis, 16 mg/L (≈ 56.3 µM); in the data set on Candida albicans, 32 mg/L (≈ 113 µM). Moreover, the MIC in the data set on Pichia kudriavzevii [2] was 16 mg/L (≈ 56.3 µM). In the data set with Pichia kudriavzevii [1], the Ratio was found to be 2.
`Nc1nc2ccc(OCCCCc3ccccc3)cc2s1`: the minimal inhibitory concentration (MIC) is 512 mg/L (≈ 1720 µM) in the data set on Candida tropicalis; 512 mg/L (≈ 1720 µM) in the data set on Staphylococcus aureus; 256 mg/L (≈ 858 µM) in the data set on Enterococcus faecalis; over 512 mg/L in the data set with Escherichia coli; 128 mg/L (≈ 429 µM) against Candida parapsilosis; 512 mg/L (≈ 1720 µM) with Candida albicans. The MIC against Pichia kudriavzevii [2] was over 512 mg/L.
In the case of `Nc1nc2ccc(OC(F)(F)F)cc2s1` [RILUZOLE], the MIC against Candida tropicalis stood at 128 mg/L (≈ 547 µM); in the data set with Staphylococcus aureus, 256 mg/L (≈ 1090 µM); in the data set with Enterococcus faecalis, 512 mg/L (≈ 2190 µM); against Escherichia coli, 512 mg/L (≈ 2190 µM); against Candida parapsilosis, 64 mg/L (≈ 273 µM); against Candida albicans, 64 mg/L (≈ 273 µM). In the data set on Pichia kudriavzevii [2], this compound gave an MIC of 128 mg/L (≈ 547 µM).
In the case of `OC(Cn1cncn1)(Cn1cncn1)c1ccc(F)cc1F` [FLUCONAZOLE], the MIC with Candida tropicalis came to 4 mg/L (≈ 13.1 µM); against Candida parapsilosis, 2 mg/L (≈ 6.53 µM); in the data set with Candida albicans, 2 mg/L (≈ 6.53 µM); in the data set with Pichia kudriavzevii [2], 32 mg/L (≈ 104 µM).
Take `COc1ccc2nc(N)sc2c1`: the MIC with Candida tropicalis is 256 mg/L (≈ 1420 µM); against Staphylococcus aureus, 128 mg/L (≈ 710 µM); against Enterococcus faecalis, 128 mg/L (≈ 710 µM); in the data set on Escherichia coli, over 512 mg/L; against Candida parapsilosis, 256 mg/L (≈ 1420 µM); against Candida albicans, 256 mg/L (≈ 1420 µM). In addition, in the data set on Pichia kudriavzevii [2], the minimal inhibitory concentration (MIC) came to 512 mg/L (≈ 2840 µM).
Turning to `Nc1nc2ccc(COc3ccccc3)cc2s1`, the MIC was 16 mg/L (≈ 62.4 µM) against Candida tropicalis; 256 mg/L (≈ 999 µM) against Staphylococcus aureus; 128 mg/L (≈ 499 µM) in the data set on Enterococcus faecalis; over 512 mg/L against Escherichia coli; 16 mg/L (≈ 62.4 µM) in the data set with Candida parapsilosis; 32 mg/L (≈ 125 µM) against Candida albicans. The compound further registered an MIC against Pichia kudriavzevii [2] of 64 mg/L (≈ 250 µM).
Take `Nc1nc2ccc(OCc3ccccc3)cc2s1`: the MIC against Candida tropicalis is 8 mg/L (≈ 31.2 µM); against Staphylococcus aureus it was over 512 mg/L; in the data set on Enterococcus faecalis it was over 512 mg/L; in the data set with Escherichia coli, over 512 mg/L; against Candida parapsilosis it was 8 mg/L (≈ 31.2 µM); in the data set with Candida albicans, 8 mg/L (≈ 31.2 µM). For the same compound, inhibition of growth in the data set with Pichia kudriavzevii [2] (MIC) required 64 mg/L (≈ 250 µM).
Take `Nc1nc2ccc(OCc3ccc(Cl)cc3)cc2s1`: the MIC in the data set with Candida tropicalis was 4 mg/L (≈ 13.8 µM); against Staphylococcus aureus, 256 mg/L (≈ 880 µM); in the data set with Enterococcus faecalis, 256 mg/L (≈ 880 µM); against Escherichia coli it was over 512 mg/L; in the data set on Candida parapsilosis, 8 mg/L (≈ 27.5 µM); in the data set on Candida albicans it was 4 mg/L (≈ 13.8 µM). Besides, inhibition of growth against Pichia kudriavzevii [2] (MIC) required 64 mg/L (≈ 220 µM). Besides, the Activity result in the data set on THP-1 [3] and in the data set with THP-1 [4] was “Toxic” in each case.
Take `CCOc1ccc2nc(N)sc2c1`: the MIC against Candida tropicalis was 128 mg/L (≈ 659 µM); in the data set with Staphylococcus aureus, 512 mg/L (≈ 2640 µM); against Enterococcus faecalis, 512 mg/L (≈ 2640 µM); in the data set with Escherichia coli, over 512 mg/L; in the data set with Candida parapsilosis it was 128 mg/L (≈ 659 µM); with Candida albicans it was 128 mg/L (≈ 659 µM). Besides, in the data set with Pichia kudriavzevii [2], the MIC came to 256 mg/L (≈ 1320 µM).
Regarding `Nc1nc2ccc(Oc3ccccc3)cc2s1`, the MIC against Candida tropicalis is 32 mg/L (≈ 132 µM); with Staphylococcus aureus it was over 512 mg/L; with Enterococcus faecalis it was over 512 mg/L; against Escherichia coli, over 512 mg/L; with Candida parapsilosis, 16 mg/L (≈ 66 µM); against Candida albicans, 128 mg/L (≈ 528 µM). Further, it took 32 mg/L (≈ 132 µM) to inhibit growth in the data set on Pichia kudriavzevii [2] (MIC).
Regarding `Nc1nc2ccc(C(F)(F)F)cc2s1`, the MIC was 64 mg/L (≈ 293 µM) with Candida tropicalis; 256 mg/L (≈ 1170 µM) in the data set with Staphylococcus aureus; 256 mg/L (≈ 1170 µM) against Enterococcus faecalis; over 512 mg/L with Escherichia coli; 64 mg/L (≈ 293 µM) in the data set on Candida parapsilosis; 16 mg/L (≈ 73.3 µM) against Candida albicans. The lowest concentration to inhibit growth against Pichia kudriavzevii [2] (MIC) was 64 mg/L (≈ 293 µM).
On to `CCn1cc(C(=O)O)c(=O)c2cc(F)c(N3CCNCC3)cc21` [NORFLOXACIN], for which the MIC in the data set with Staphylococcus aureus was found to be 0.5 mg/L (≈ 1.57 µM); with Enterococcus faecalis it was 4 mg/L (≈ 12.5 µM); against Escherichia coli, 0.03 mg/L (≈ 0.0939 µM).
Turning to `Nc1nc2ccc(Oc3ccc(Cl)cc3)cc2s1`, the MIC with Candida tropicalis was 8 mg/L (≈ 28.9 µM); against Staphylococcus aureus, 512 mg/L (≈ 1850 µM); against Enterococcus faecalis it was 512 mg/L (≈ 1850 µM); against Escherichia coli, over 512 mg/L; with Candida parapsilosis, 4 mg/L (≈ 14.5 µM); with Candida albicans it was 8 mg/L (≈ 28.9 µM). This compound came in with an MIC in the data set on Pichia kudriavzevii [2] of 32 mg/L (≈ 116 µM). Moreover, the Activity entry in the data set on THP-1 [5] is reported as “Non-toxic”.

Broadly, the MIC is the lowest concentration found to suppress growth.
